{
  "source": "patent US20080312435A1",
  "about": "“Imine Compound” (TAISHO PHARMACEUTICAL CO., LTD., priority 2004, published 2008)",
  "key": {"human CB2 receptor [1]": {"target": "T1, human CB2 receptor (Homo sapiens, UniProt P34972)", "T1 construct": "expressed in transfected cells", "T1 sequence (P34972 whole entry)": "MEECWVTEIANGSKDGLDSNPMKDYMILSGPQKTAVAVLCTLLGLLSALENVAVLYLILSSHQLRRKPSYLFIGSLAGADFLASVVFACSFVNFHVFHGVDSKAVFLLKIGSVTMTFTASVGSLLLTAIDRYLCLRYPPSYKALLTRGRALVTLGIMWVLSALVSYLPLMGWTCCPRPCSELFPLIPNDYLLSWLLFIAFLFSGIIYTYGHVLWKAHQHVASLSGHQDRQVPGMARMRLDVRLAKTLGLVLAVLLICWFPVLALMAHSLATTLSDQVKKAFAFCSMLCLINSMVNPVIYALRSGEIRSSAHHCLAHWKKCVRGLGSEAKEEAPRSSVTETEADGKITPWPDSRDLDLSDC", "assay": "Human CB2 receptor binding inhibition test ([3H]CP-55,940, CHO membrane fractions)", "conditions": "[3H]CP-55,940, membrane fractions of CHO cells stably expressing human CB2 receptor, 25° C., 2 hours; read-out: CB2 IC50 (Inhibition of binding to human CB2 receptor)", "how_it_was_run": "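Membranes from CHO-DHFR(−) cells stably expressing human CB2 used for [3H]CP-55,940 binding; filter-bound radioactivity counted by scintillation after washes with 0.1% BSA buffer. Nonspecific binding defined with 2.0 μM CP-55,940; IC50 for inhibition of specific binding.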"}, "human CB2 receptor [2]": {"target": "T1, human CB2 receptor", "assay": "Test for GTPγS binding via human CB2 receptor", "format": "biochemical", "conditions": "human CB2 receptor CHO membrane fractions; read-out: EC50 value (effective concentration exhibiting 50% activity), GTPγS binding", "experimental": "Test for GTPγS Binding Via Human CB2 Receptor\nThe CHO cells capable of stably expressing the human CB2 receptor were prepared in the same manner as in Experimental Example 1."}, "[3]": {"test_system": "Jcl: ICR-series male mice", "assay": "Writhing test with acetic acid in mouse", "format": "in vivo", "conditions": "orally administered 30 mg/kg, acetic acid i.p. one hour after administration", "experimental": "Writhing Test with Acetic Acid in Mouse\nThis test was performed in accordance with the method of Futaki N et al. (Gen Pharmacol. 24(1):105-110 (1993). A test compound suspended in a 5% gum Arabic solution was orally administered to Jcl: ICR-series male mice (5 weeks old). One hour after the administration of the test compound, a 0.9% aqueous acetic acid solution was intraperitoneally administered. Five minutes after the administration, the number of abdomen stretch movements (pain-related behavior) were counted for 10 minutes. Only the 5% gum Arabic solution was orally administered to the control group. A pain-related behavior inhibition rate (%) was obtained based on the following equation."}, "Balb/c male mice": {"test_system": "Balb/c male mice", "assay": "Test for edema on ear in mouse (PMA-induced)", "format": "in vivo", "conditions": "1 mg per murine ear, PMA 0.8 μg, measured five hours later", "experimental": "Test for Edema on Ear in Mouse\nUsing Balb/c male mice (5 weeks old), a test compound dissolved in acetone was applied in an amount of 20 μL to the inside the ear. Ten minutes after the application of the test compound, an acetone solution (20 μL) containing 0.8 μg of PMA (phorbol 12-myristate 13-acetate) was applied. Five hours later, the thickness (hyperplasia) of the ear was measured by a dial sickness gauge. Acetone alone was applied to the control group. The inhibition rate (%) of edema on the ear was calculated based on the following equation."}, "SD:IGS-series male rats": {"test_system": "SD:IGS-series male rats", "assay": "Neuropathic pain test in rat (partial sciatic nerve clipping, von Frey filament)", "format": "in vivo", "conditions": "oral administration 3, 10 and 30 mg/kg, one hour after administration, FIG. 1", "experimental": "Neuropathic Pain Test in Rat\nUsing SD:IGS-series male rats (5 weeks old), neuropathic pain model were prepared by partially clipping the sciatic nerve of the femoral region in accordance with the method of Seltzer et al. (SeltzerZ; Pain. 43(2):205-218 (1990)). When the plantar surface of the paw on the affected side was stimulated by touching with a von Frey filament(s) (nylon fiber for use in a touch test: North Coast Medical, Inc.), the pain threshold (load (g) applied to the filament when an animal responds to touch stimulation) was measured. The test compound was suspended in a 5% gum Arabic solution and administered in a dose of 0 mg/kg, 3 mg/kg, 10 mg/kg and 30 mg/kg. One hour after the administration, pain threshold (g) was measured."}, "human CB1 receptor [4]": {"target": "T2, human CB1 receptor (Homo sapiens, UniProt P21554)", "T2 construct": "expressed in transfected cells", "T2 sequence (P21554 whole entry)": "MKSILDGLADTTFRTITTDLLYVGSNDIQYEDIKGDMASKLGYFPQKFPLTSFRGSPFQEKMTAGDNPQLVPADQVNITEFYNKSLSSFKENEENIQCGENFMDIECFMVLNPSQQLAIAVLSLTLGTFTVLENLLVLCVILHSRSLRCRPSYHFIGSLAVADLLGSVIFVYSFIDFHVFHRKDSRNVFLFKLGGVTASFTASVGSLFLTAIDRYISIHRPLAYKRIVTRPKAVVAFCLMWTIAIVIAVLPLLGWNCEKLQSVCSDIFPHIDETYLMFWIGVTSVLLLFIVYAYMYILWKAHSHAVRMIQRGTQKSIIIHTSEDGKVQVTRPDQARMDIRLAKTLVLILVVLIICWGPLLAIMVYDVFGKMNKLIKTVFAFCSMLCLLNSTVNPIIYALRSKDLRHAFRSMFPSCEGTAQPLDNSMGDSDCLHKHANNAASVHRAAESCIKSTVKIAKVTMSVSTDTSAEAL", "assay": "Test for GTPγS binding via human CB1 receptor", "format": "biochemical", "conditions": "human CB1 receptor CHO membrane fractions; maximum activity of each compound regarded as 100%; read-out: EC50 value (effective concentration exhibiting 50% activity), [35S]GTPγS binding", "experimental": "Test for GTPγS Binding Via Human CB1 Receptor\nCHO cells capable of stably expressing the human CB1 receptor were prepared in the same manner as in Experimental Example 2. The membrane fractions thereof were incubated together with a test compound in an assay buffer [50 mM Tris-HCl (pH 7.4), 2.5 mM EDTA, 5 mM MgCl2, 3 μM GDP (manufactured by SIGMA), 30 μg/ml Saponin (manufactured by SIGMA)] containing 0.2% bovine serum albumin at 30° C. for 30 minutes. Thereafter, 0.1 nM [^35S]GTPγS (manufactured by Perkin Elmer) was added to the buffer, incubation was performed at 30° C. for 30 minutes. The resultant solution was filtrated by a glass filter GF/C and washed. Thereafter, radioactivity on the glass filter was measured by a liquid scintillation counter. The nonspecific binding was measured […]."}, "human CB1 receptor [5]": {"target": "T2, human CB1 receptor", "assay": "Human CB1 receptor binding inhibition test", "conditions": "CHO-DHFR(−) cells stably expressing human CB1 receptor, same manner as Experimental Example 1", "experimental": "Human CB1 Receptor Binding Inhibition Test\nThe CHO-DHFR(−) cells capable of stably expressing a CB1 receptor were prepared in the same manner as in Experimental Example 1. The binding test to the human CB1 receptor was performed to obtain 50% inhibitory concentration (IC50 value) of a test compound."}},
  "data": [
    {"smiles": "O=C(/N=c1\\ccccn1CC1CC1)c1cccc(C(F)(F)F)c1F", "note": "[compound 9]", "values": [
      {"measurement": "IC50", "setting": "human CB2 receptor [1]", "result": 11.3, "unit": "nM"},
      {"measurement": "EC50", "setting": "human CB2 receptor [2]", "result": 23.7, "unit": "nM"},
      {"measurement": "melting point", "result": "58.5 to 59", "unit": "°C"}
    ]},
    {"smiles": "COc1ccc(C(F)(F)F)cc1C(=O)/N=c1\\cc(C(C)(C)C)sn1CC1CC1", "note": "[compound 59]", "values": [
      {"measurement": "pain-related behavior inhibition rate", "setting": "[3]", "result": 44.8, "unit": "%"},
      {"measurement": "IC50", "setting": "human CB2 receptor [1]", "result": 7.2, "unit": "nM"},
      {"measurement": "melting point", "result": "95 to 97", "unit": "°C"}
    ]},
    {"smiles": "Cc1c(C(C)(C)C)s/c(=N\\C(=O)c2cccc(C(F)(F)F)c2)n1CC1CC1", "note": "[compound 184]", "values": [
      {"measurement": "IC50", "setting": "human CB2 receptor [1]", "result": 12, "unit": "nM"},
      {"measurement": "inhibition rate of edema on the ear", "setting": "Balb/c male mice", "result": 65, "unit": "%"},
      {"measurement": "pain threshold", "setting": "SD:IGS-series male rats", "result": "increased pain threshold in a dose depending manner"},
      {"measurement": "EC50", "setting": "human CB2 receptor [2]", "result": 9.8, "unit": "nM"}
    ]},
    {"smiles": "Cc1cccc(C(=O)/N=c2\\sc(C(C)(C)C)c(C)n2CC2CC2)c1Br", "note": "[compound 247]", "values": [
      {"measurement": "pain-related behavior inhibition rate", "setting": "[3]", "result": 93.0, "unit": "%"},
      {"measurement": "IC50", "setting": "human CB2 receptor [1]", "result": 0.3, "unit": "nM"},
      {"measurement": "EC50", "setting": "human CB1 receptor [4]", "result": 33, "unit": "nM"},
      {"measurement": "IC50", "setting": "human CB1 receptor [5]", "result": 3, "unit": "nM"},
      {"measurement": "melting point", "result": "142 to 144", "unit": "°C"}
    ]},
    {"smiles": "Cc1cccc(C(=O)/N=c2\\sc(C(C)(C)C)c(C)n2CC2CC2)c1I", "note": "[compound 249]", "values": [
      {"measurement": "IC50", "setting": "human CB2 receptor [1]", "result": 0.4, "unit": "nM"},
      {"measurement": "EC50", "setting": "human CB1 receptor [4]", "result": 19, "unit": "nM"},
      {"measurement": "IC50", "setting": "human CB1 receptor [5]", "result": 2, "unit": "nM"},
      {"measurement": "melting point", "result": "149 to 151", "unit": "°C"}
    ]},
    {"smiles": "COc1ccc(C(F)(F)F)cc1C(=O)/N=c1\\sc(C(C)(C)C)c(C)n1CC1CC1", "note": "[compound 267]", "values": [
      {"measurement": "pain-related behavior inhibition rate", "setting": "[3]", "result": 59.9, "unit": "%"},
      {"measurement": "IC50", "setting": "human CB2 receptor [1]", "result": 1.1, "unit": "nM"},
      {"measurement": "inhibition rate of edema on the ear", "setting": "Balb/c male mice", "result": 84, "unit": "%"},
      {"measurement": "EC50", "setting": "human CB2 receptor [2]", "result": 0.4, "unit": "nM"},
      {"measurement": "melting point", "result": "175 to 177", "unit": "°C"}
    ]},
    {"smiles": "Cc1c(C(C)(C)C)s/c(=N\\S(=O)(=O)c2ccccc2C(F)(F)F)n1CC1CC1", "note": "[compound 411]", "values": [
      {"measurement": "pain-related behavior inhibition rate", "setting": "[3]", "result": 49.0, "unit": "%"},
      {"measurement": "IC50", "setting": "human CB2 receptor [1]", "result": 8.7, "unit": "nM"}
    ]},
    {"smiles": "Cn1c(C(C)(C)C)c/c(=N\\C(=O)c2cccc(C(F)(F)F)c2F)n1CC1CC1", "note": "[compound 474, N-(5-t-butyl-2-cyclopropylmethyl-1,2-dihydro-1-methylpyrazol-3-ylidene)-2-fluoro-3-(trifluoromethyl)benzamide]", "values": [
      {"measurement": "pain-related behavior inhibition rate", "setting": "[3]", "result": 61.9, "unit": "%"},
      {"measurement": "IC50", "setting": "human CB2 receptor [1]", "result": 4.9, "unit": "nM"},
      {"measurement": "inhibition rate of edema on the ear", "setting": "Balb/c male mice", "result": 37, "unit": "%"},
      {"measurement": "EC50", "setting": "human CB2 receptor [2]", "result": 2.3, "unit": "nM"}
    ]},
    {"smiles": "CC(C)(C)c1nn(CC2CC2)/c(=N/C(=O)c2nccc3ccccc23)s1", "note": "[compound 510]", "values": [
      {"measurement": "pain-related behavior inhibition rate", "setting": "[3]", "result": 19.6, "unit": "%"},
      {"measurement": "IC50", "setting": "human CB2 receptor [1]", "result": 13.2, "unit": "nM"},
      {"measurement": "melting point", "result": "89 to 90", "unit": "°C"}
    ]}
  ]
}
